Data published in the supplement of paper PMC10307832.

Compound: CNC(=O)c1cc(Oc2ccc(NC(=O)Nc3ccc(Cl)c(C(F)(F)F)c3)cc2)ccn1 [Sorafenib] + COc1cc2c(Oc3ccc(NC(=O)C4(C(=O)Nc5ccc(F)cc5)CC4)cc3F)ccnc2cc1OCCCN1CCOCC1 [Foretinib] (partner 0.25 µM)
Assay: relative viability (nuclei count vs DMSO), 5 days (fraction); higher = more cells survive
How it was run: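 Five library-drug doses in √10 steps were combined with a fixed anchor-drug dose, or a single drug was given alone, by pin tool to lung cancer cell lines in 1536-well plates the day after seeding. Nuclei were stained and counted after 5 days. Relative viability is the nuclei count in treated wells over that in vehicle wells, taken as the median of duplicate plates.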

Row | Cell Line | relative viability (first compound 0.08 µM) | relative viability (first compound 2.53 µM) | relative viability (first compound 8 µM) | relative viability (first compound 0.253 µM)
1 | 201T | 1.23 | 1.11 | 0.884 | 
2 | A-427 | 1.24 | 0.94 | 0.754 | 0.989
3 | ABC-1 | 1.06 | 1.38 | 0.392 | 1.11
4 | BEN | 0.755 | 0.811 | 0.526 | 0.518
5 | CAL-12T | 1.39 | 1.03 | 0.868 | 1.05
6 | COR-L23 | 1.13 | 0.937 | 0.765 | 0.982
7 | COR-L 105 | 1.32 | 1.18 | 1.03 | 0.982
8 | ChaGo-K-1 | 0.961 | 0.9 |  | 0.965
9 | EKVX | 1.09 | 0.672 | 0.606 | 0.748
10 | EMC-BAC-2 | 1.02 | 1 | 0.658 | 0.819
11 | EPLC-272H | 0.702 | 0.788 | 0.508 | 0.716
12 | H3255 | 1.06 | 0.829 | 0.567 | 
13 | HARA | 0.967 | 0.898 | 0.889 | 0.916
14 | HCC-15 | 0.999 | 1 | 0.869 | 0.933
15 | HCC-78 | 0.632 | 0.801 | 0.905 | 0.537
16 | HCC-366 | 0.927 | 0.937 | 0.94 | 0.957
17 | HCC-827 | 1.1 | 1.02 | 1.02 | 0.981
18 | HOP-62 | 1.05 | 0.749 | 0.676 | 0.916

Row | Cell Line | relative viability (first compound 0.08 µM) | relative viability (first compound 2.53 µM) | relative viability (first compound 8 µM) | relative viability (first compound 0.253 µM)
19 | IA-LM |  | 0.61 | 0.757 | 0.624
20 | LC-2-ad | 0.923 | 0.985 | 0.744 | 0.989
21 | LCLC-97TM1 | 0.959 | 0.897 | 0.926 | 0.837
22 | LCLC-103H | 0.793 | 0.813 | 0.882 | 0.794
23 | LK-2 | 1.06 | 0.976 | 0.747 | 1
24 | LOU-NH91 | 1.02 | 1.08 | 0.942 | 0.973
25 | LU99A | 0.741 | 0.78 | 0.728 | 0.758
26 | LXF-289 |  | 1.06 | 0.943 | 0.992
27 | NCI-H23 | 1.03 | 0.833 | 0.871 | 0.977
28 | NCI-H322M | 1.19 | 1.14 | 1.05 | 0.994
29 | NCI-H358 | 0.786 |  | 0.489 | 0.723
30 | NCI-H441 | 1.11 | 0.957 | 0.782 | 
31 | NCI-H460 | 0.972 | 0.972 | 0.622 | 0.997
32 | NCI-H520 | 0.71 | 0.736 | 0.406 | 0.71
33 | NCI-H596 | 0.73 | 0.866 | 0.66 | 0.958
34 | NCI-H647 | 1.25 | 0.987 | 0.48 | 1
35 | NCI-H650 | 1.02 | 0.942 | 0.857 | 0.863
36 | NCI-H661 | 1.03 |  | 0.701 | 0.986
